Experimental data from patent US20040028752A1, “Topical pharmaceutical composition comprising a cholinergic agent or a calcium channel blocker” (S.L.A. Pharma AG., priority 2002, published 2004).
Like-named read-outs stand apart in the source and are kept apart here.

How the values were obtained:
[1] = system: resting anal sphincter pressure; experiment: Bethanechol dose ranging study in healthy volunteers; format: in vivo, human
Text: Bethanechol cream at concentrations of 0.05%, 0.1%, 0.5% and 1% w/w bethanechol were made up in accordance with example 1. The compositions were studied following initial experimentation in an open way to determine a clinically effective dose range. […] Maximal effect was produced by application of 0.1% bethanechol and higher concentrations of the cream produced no additional effect. At 0.1% w/w bethanechol, the mean resting pressure was reduced from about 110 cm to about 85 cm H2O (about 25% decrease). A typical ‘one inch’ application of this cream from the tube is equivalent to 400 mcg of bethanechol.

chronic anal fissures [2] = experiment: Open study of bethanechol cream in patients with chronic anal fissures; format: in vivo, human; conditions: 0.1% cream three times daily
Text: The 0.1% bethanechol cream of example 3 was applied to the anus three times daily for an eight week course to treat patients suffering from chronic anal fissures (in an uncontrolled, open, pilot study). To date, 6 patients have been treated and followed up for 3 to 5 weeks. Four patients have had complete resolution of symptoms, of whom 3 have complete and 1 partial healing of the fissure. In all of these 4 patients there has been a reduction of the maximum resting anal sphincter pressure to within normal limits. One patient discovered they were pregnant and treatment was discontinued. The last patient has had no relief and remains symptomatic after 4 weeks' follow up.

[3] = system: resting anal sphincter pressure; experiment: Diltiazem dose ranging study on healthy volunteers, eight channel water perfused manometer; format: in vivo, human
Text: Concentrations of diltiazem cream used were 0.1%, 0.5%, 1%, 2%, 5% and 10%. […] The maximal effect, at which the mean resting anal pressure was lowered by 28% (P<0.0001), was produced by 2% w/w cream (See FIG. 1).

[4] = system: internal anal resting pressure; conditions: given orally at 60 mg; cited from earlier work
chronic anal fissures [5] = experiment: Open study of diltiazem cream in patients with anal fissures; format: in vivo, human
Text: 2% diltiazem cream from example 2 was applied to the anus three times daily for 8 weeks to treat patients suffering from chronic anal fissures (in an uncontrolled, open, pilot study). To date, 7 patients were studied and followed up between 2 to 5 weeks. 5 patients have had complete resolution of symptoms, of whom 3 have complete and 2 partial healing of the fissure. In four of these 5 patients there has been a reduction of the maximum resting anal sphincter pressure to within normal limits. The last patient, though symptom free, continues to have a high anal resting pressure.
2 patients have only had two weeks of treatment and one is symptom free after this short period, whilst the other still has occasional pain. It is too early to comment on healing of fissures in these two patients.

[6] = system: mean anal resting pressure; experiment: Study of example 4 repeated using oral diltiazem
[7] = system: internal anal resting pressure; conditions: topical use; cited from earlier work
[8] = system: maximum resting pressures in the anal canal; conditions: after 1 hour, patients with anal fissures; cited from earlier work
[9] = among the four patients with complete resolution of symptoms
[10] = 2% cream three times daily, among the 5 patients with complete resolution of symptoms

**Q.** What does the source list for `CC(C[N+](C)(C)C)OC(N)=O` (centres unmarked) [bethanechol]?
**A.** decrease of mean resting pressure ([1]; 0.1% w/w bethanechol topical, healthy volunteers): about 25%; mean resting pressure after application ([1]; 0.1% w/w bethanechol topical, healthy volunteers, reduced from about 110 cm): about 85 cm H2O; effect on resting anal sphincter pressure ([1]; topical 0.05%, 0.1%, 0.5% and 1% w/w): dose dependent reduction; effect of a single application sustained from ([1]; topical bethanechol, healthy volunteers (FIG. 4: 0.1% w/w gel)): 3 to 5 h; concentration producing the maximal effect on resting anal sphincter pressure ([1]; topical, 0.05%, 0.1%, 0.5% and 1% w/w tested, higher concentrations no additional effect): 0.1%; patients with complete resolution of symptoms (chronic anal fissures [2]; 6 patients treated, follow up 3 to 5 weeks): Four; patients with complete healing of the fissure (chronic anal fissures [2]; [9]): 3 patients; patients with partial healing of the fissure (chronic anal fissures [2]; [9]): 1 patients; patients with reduction of the maximum resting anal sphincter pressure to within normal limits (chronic anal fissures [2]; of the 4 symptom-free patients): 4 patients

**Q.** Which results are given for `COc1ccc([C@@H]2Sc3ccccc3N(CCN(C)C)C(=O)[C@@H]2OC(C)=O)cc1` [diltiazem]?
**A.** mean resting anal pressure lowered by ([3]; 2% w/w cream, topical to anus, ten healthy volunteers, maximal effect, P<0.0001): 28%; effect on resting anal sphincter pressure ([3]; topical cream 0.1%, 0.5%, 1%, 2%, 5% and 10%): dose dependent reduction; effect of a single application sustained for ([3]; topical diltiazem, healthy volunteers (FIG. 2: 1% w/w gel)): 3 to 5 h; effect on internal anal resting pressure [4]: reduce internal anal resting pressure; patients with complete resolution of symptoms (chronic anal fissures [5]; 2% cream three times daily, 7 patients studied, follow up 2 to 5 weeks): 5 patients; patients with complete healing of the fissure (chronic anal fissures [5]; [10]): 3 patients; patients with partial healing of the fissure (chronic anal fissures [5]; [10]): 2 patients; patients with reduction of the maximum resting anal sphincter pressure to within normal limits (chronic anal fissures [5]; 2% cream three times daily, of the 5 symptom-free patients): four; patients symptom free after two weeks of treatment (chronic anal fissures [5]; 2% cream, of the 2 patients with only two weeks of treatment): one; effect on mean anal resting pressure ([6]; 60 mg oral once a day): no notable effect; patients who noticed postural dizziness ([6]; 60 mg oral twice a day): two; mean anal resting pressure reduced by ([6]; 60 mg oral twice a day, P=0.008): 17%

**Q.** For `O=[N+]([O-])OCC(CO[N+](=O)[O-])O[N+](=O)[O-]` [glyceryl trinitrate], which “effect on internal anal resting pressure” value [7] is on record?
**A.** The value was “reduces the internal anal resting pressure”.

**Q.** Which “reduction of maximum resting pressures in the anal canal” value [8] does the source give for `O=C(NC1CCN(CCc2c[nH]c3ccccc23)CC1)c1ccccc1` [indoramin] here?
**A.** Its value is 35.8%.
